Results from patent US4829078A, “3-phenoxy (or phenylthio)--cyclopentanecarbonylamino acid analogues” (Ono Pharmaceutical Co., Ltd., priority 1985, dated 1989).

How the values were obtained:
[1] = tested on: organ slice of cat cerebral cortex; experiment: inhibition test on cerebral edema using organ slice of cat cerebral cortex (NaHCO3-stimulated swelling); assay type: cell-based; conditions: Felis catus, 50 min; gray matter slices, 50 minutes at 37° C., pH 7.4, NaHCO3 as stimulating agent of swelling; read-out: Inhibitory activity on cerebral edema (IC50)
Method: The inhibition test on cerebral edema using organ slice of cat cerebral cortex
The test was carried out by the method described in Journal of Medicinal Chemistry, Vol. 25 (No. 5), 567 (1982).
That is, brain was isolated from a cat (weighing 2≈4 kg), slices of about 1 mm in thickness was prepared, the white matter substance was removed, and the gray matter substance (100≈150 mg a test) was used for a sample. The sample was added to the following incubation medium and incubated for 50 minutes at 37° C. After the incubation, the sample was immediately weighed again to determine the swelling weight of the sample. incubation medium (osmotic pressure, 280≈290 mOsm/l)
1. Hepes Buffer (pH 7.4) . . . 2.365 ml
adjusted to pH 7.4 by NaOH
2. test compounds [dissolved in the presence of tris(hydroxymethyl)aminomethane] or water . . . 0.01 ml
3. 0.2M NaHCO3 . . . 0.125 ml (dissolved by Hepes Buffer, giving the final concentration of 10 mM in medium) […]
(C) A percentage of swelling when a slice sample was added to incubation medium comprising Hepes Buffer, the test compounds in various concentrations and NaHCO3. Above-mentioned (A), (B) and (C) were determined. Inhibition percentage of the test compounds was calculated by the following equation: [formula] IC50 value was determined by dose-response curve as a concentration in which inhibition percentage was 50.

[2] = acute toxicity test in mice by intravenous administration; conditions: mouse, in vivo
Method: For example, in the acute toxicity test in mice by intravenous administration, LD50 value of compounds of example 1 and 1-(c) is the dose of between 200 and 400 mg/kg.

Row | Structure (SMILES) | IC50 [1] | LD50 [2]
1 | C[C@H](NC(=O)[C@H]1CC[C@H](Oc2ccc(C(=O)c3ccccc3)c(Cl)c2Cl)C1)C(=O)O [1-(c), N-{(1S,3S)-3-(2,3-dichloro-4-benzoylphenoxy)cyclopentanecarbonyl}alanine] | 500 nM | 200 to 400 mg/kg
2 | O=C(O)CC[C@H](NC(=O)[C@H]1CC[C@H](Oc2ccc(C(=O)c3ccccc3)c(Cl)c2Cl)C1)C(=O)O [Example 1, N-{(1S,3S)-3-(2,3-dichloro-4-benzoylphenoxy)cyclopentanecarbonyl}glutamic acid] | 3000 nM | 200 to 400 mg/kg
